Measurements reported in PubChem BioAssay AID2060611 (Molecular Pharmacology Branch, DTP, NCI, 2025).

Test system: 628569-122-R-J1-PDC complex spheroid viability
Experiment: Anticancer human tumor 628569-122-R-J1-PDC patient-derived head and neck squamous carcinoma cell line growth inhibition [CLK]
Settings: for viability, T/C: stronger effect = lower value
Method in brief: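 Patient-derived tumor cells grown as complex spheroids with HUVEC endothelial cells and mesenchymal stem cells, treated with drug combinations. Concentrations descend in half-log steps from near clinical Cmax, or from 10 microM if Cmax unknown.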

[1] = curve of first compound, second compound 0.0316 µM
[2] = curve of first compound, second compound 0.1 µM
[3] = curve of first compound, second compound 0.316 µM
[4] = curve of first compound, second compound 1 µM
[5] = curve of first compound, second compound 3.16 µM
[6] = curve of first compound, second compound 10 µM
[7] = second compound 0.0316 µM, first compound 0.0316 µM
[8] = second compound 0.0316 µM, first compound 0.1 µM
[9] = second compound 0.0316 µM, first compound 0.316 µM
[10] = second compound 0.0316 µM, first compound 1 µM
[11] = second compound 0.0316 µM, first compound 3.16 µM
[12] = second compound 0.0316 µM, first compound 10 µM
[13] = second compound 0.1 µM, first compound 0.0316 µM
[14] = second compound 0.1 µM, first compound 0.1 µM
[15] = second compound 0.1 µM, first compound 0.316 µM
[16] = second compound 0.1 µM, first compound 1 µM
[17] = second compound 0.1 µM, first compound 3.16 µM
[18] = second compound 0.1 µM, first compound 10 µM
[19] = second compound 0.316 µM, first compound 0.0316 µM
[20] = second compound 0.316 µM, first compound 0.1 µM
[21] = second compound 0.316 µM, first compound 0.316 µM
[22] = second compound 0.316 µM, first compound 1 µM
[23] = second compound 0.316 µM, first compound 3.16 µM
[24] = second compound 0.316 µM, first compound 10 µM
[25] = second compound 1 µM, first compound 0.0316 µM
[26] = second compound 1 µM, first compound 0.1 µM
[27] = second compound 1 µM, first compound 0.316 µM
[28] = second compound 1 µM, first compound 1 µM
[29] = second compound 1 µM, first compound 3.16 µM
[30] = second compound 1 µM, first compound 10 µM
[31] = second compound 3.16 µM, first compound 0.0316 µM
[32] = second compound 3.16 µM, first compound 0.1 µM
[33] = second compound 3.16 µM, first compound 0.316 µM
[34] = second compound 3.16 µM, first compound 1 µM
[35] = second compound 3.16 µM, first compound 3.16 µM
[36] = second compound 3.16 µM, first compound 10 µM
[37] = second compound 10 µM, first compound 0.0316 µM
[38] = second compound 10 µM, first compound 0.1 µM
[39] = second compound 10 µM, first compound 0.316 µM
[40] = second compound 10 µM, first compound 1 µM
[41] = second compound 10 µM, first compound 3.16 µM
[42] = second compound 10 µM, first compound 10 µM
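Further: spheroids exposed to agents for seven days before readout.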
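Wherever viability, T/C is given: 100% = DMSO vehicle control viability.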

Work on `C#Cc1c(F)ccc2cc(O)cc(-c3ncc4c(N5CC6CCC(C5)N6)nc(OCC56CCCN5CC(F)C6)nc4c3F)c12` (stereo not drawn) + CN1CCN(c2cc(C(=O)Nc3cc4cc(-c5cnn(C)c5)ccc4cn3)ccn2)CC1 yielded an IC50 [1] greater than 10000 nM, an IC50 [2] greater than 10000 nM and an IC50 [3] of less than 31.6 nM. It also gave an IC50 [4] of less than 31.6 nM, an IC50 [5] of less than 31.6 nM and an IC50 [6] of less than 31.6 nM. For the same molecule, the viability, T/C [7] was 80.5%, the viability, T/C [8] was 100% and the viability, T/C [9] was 88.8%. For the same molecule, the viability, T/C [10] was 92.9%, the viability, T/C [11] was 84.8% and the viability, T/C [12] was 96%. The viability, T/C [13] was 56.6%, the viability, T/C [14] was 61.1% and the viability, T/C [15] was 64.8%. The viability, T/C [16] was 63.3%, the viability, T/C [17] was 57.1% and the viability, T/C [18] was 44.9%. For the same molecule, the viability, T/C [19] was 32.3%, the viability, T/C [20] was 33.5% and the viability, T/C [21] was 34.9%. The viability, T/C [22] was 42.4%, the viability, T/C [23] was 37.6% and the viability, T/C [24] was 29.9%. For the same molecule, the viability, T/C [25] was 7.93%, the viability, T/C [26] was 5.94% and the viability, T/C [27] was 7.93%. It also gave a viability, T/C [28] of 8.03%, a viability, T/C [29] of 5.77% and a viability, T/C [30] of 5.01%. The viability, T/C [31] was 9.44%, the viability, T/C [32] was 7.11% and the viability, T/C [33] was 5.82%. The viability, T/C [34] was 5.27%, the viability, T/C [35] was 5.66% and the viability, T/C [36] was 7.7%. For the same molecule, the viability, T/C [37] was 5.72%, the viability, T/C [38] was 3.17% and the viability, T/C [39] was 2.28%. For the same molecule, the viability, T/C [40] was 4.25%, the viability, T/C [41] was 5.23% and the viability, T/C [42] was 1%.
With `NC(=O)C(=Cn1cnc(-c2cc(C(F)(F)F)cc(C(F)(F)F)c2)n1)c1cncnc1` + CN1CCN(c2cc(C(=O)Nc3cc4cc(-c5cnn(C)c5)ccc4cn3)ccn2)CC1 the IC50 [1] was 681 nM, the IC50 [2] was 28.5 nM and the IC50 [3] was less than 9.49 nM. It also gave an IC50 [4] of less than 9.49 nM, an IC50 [5] of less than 9.49 nM and an IC50 [6] of less than 9.49 nM. For the same molecule, the viability, T/C (second compound 0.0316 µM, first compound 0.00949 µM) was 79.3%, the viability, T/C (second compound 0.0316 µM, first compound 0.03 µM) was 67.5% and the viability, T/C (second compound 0.0316 µM, first compound 0.0949 µM) was 76%. It also gave a viability, T/C (second compound 0.0316 µM, first compound 0.3 µM) of 76.1%, a viability, T/C (second compound 0.0316 µM, first compound 0.949 µM) of 38.1% and a viability, T/C (second compound 0.0316 µM, first compound 3 µM) of 41.8%. For the same molecule, the viability, T/C (second compound 0.1 µM, first compound 0.00949 µM) was 47.6%, the viability, T/C (second compound 0.1 µM, first compound 0.03 µM) was 53% and the viability, T/C (second compound 0.1 µM, first compound 0.0949 µM) was 47.4%. It also gave a viability, T/C (second compound 0.1 µM, first compound 0.3 µM) of 35%, a viability, T/C (second compound 0.1 µM, first compound 0.949 µM) of 22.3% and a viability, T/C (second compound 0.1 µM, first compound 3 µM) of 13.7%. It also gave a viability, T/C (second compound 0.316 µM, first compound 0.00949 µM) of 31.6%, a viability, T/C (second compound 0.316 µM, first compound 0.03 µM) of 22.2% and a viability, T/C (second compound 0.316 µM, first compound 0.0949 µM) of 8.26%. The viability, T/C (second compound 0.316 µM, first compound 0.3 µM) was 6.76%, the viability, T/C (second compound 0.316 µM, first compound 0.949 µM) was 4.81% and the viability, T/C (second compound 0.316 µM, first compound 3 µM) was 2.61%. The viability, T/C (second compound 1 µM, first compound 0.00949 µM) was 8.6%, the viability, T/C (second compound 1 µM, first compound 0.03 µM) was 7.83% and the viability, T/C (second compound 1 µM, first compound 0.0949 µM) was 5.77%. For the same molecule, the viability, T/C (second compound 1 µM, first compound 0.3 µM) was 4.21%, the viability, T/C (second compound 1 µM, first compound 0.949 µM) was 5.37% and the viability, T/C (second compound 1 µM, first compound 3 µM) was 1.7%. The viability, T/C (second compound 3.16 µM, first compound 0.00949 µM) was 6.02%, the viability, T/C (second compound 3.16 µM, first compound 0.03 µM) was 7.42% and the viability, T/C (second compound 3.16 µM, first compound 0.0949 µM) was 10.8%. It also gave a viability, T/C (second compound 3.16 µM, first compound 0.3 µM) of 16.6%, a viability, T/C (second compound 3.16 µM, first compound 0.949 µM) of 4.54% and a viability, T/C (second compound 3.16 µM, first compound 3 µM) of 1.65%. It also gave a viability, T/C (second compound 10 µM, first compound 0.00949 µM) of 4.54%, a viability, T/C (second compound 10 µM, first compound 0.03 µM) of 4.5% and a viability, T/C (second compound 10 µM, first compound 0.0949 µM) of 6.08%. It also gave a viability, T/C (second compound 10 µM, first compound 0.3 µM) of 5.71%, a viability, T/C (second compound 10 µM, first compound 0.949 µM) of 1.68% and a viability, T/C (second compound 10 µM, first compound 3 µM) of 1.21%.
`CN1CCN(c2cc(C(=O)Nc3cc4cc(-c5cnn(C)c5)ccc4cn3)ccn2)CC1` was tested, and the viability, T/C (compound 0.0316 µM) was 104% [middle of 12 runs], the viability, T/C (compound 0.1 µM) was 69.2% [middle of 12 runs] and the viability, T/C (compound 0.316 µM) was 35.6% [middle of 12 runs]. For the same molecule, the viability, T/C (compound 1 µM) was 5.28% [middle of 12 runs], the viability, T/C (compound 3.16 µM) was 7.69% [middle of 12 runs] and the viability, T/C (compound 10 µM) was 6.81% [middle of 12 runs]. For the same molecule, the IC50 (compound alone, run of 09/18/2023) was 187 nM [middle of 12 runs].
Molecule `Nc1ccccc1NC(=O)c1ccc(CNC(=O)OCc2cccnc2)cc1` + CN1CCN(c2cc(C(=O)Nc3cc4cc(-c5cnn(C)c5)ccc4cn3)ccn2)CC1 has an IC50 [1] of 7610 nM, an IC50 [2] of 4780 nM and an IC50 [3] of less than 31.6 nM. The IC50 [4] was less than 31.6 nM, the IC50 [5] was less than 31.6 nM and the IC50 [6] was less than 31.6 nM. For the same molecule, the viability, T/C [7] was 93.5%, the viability, T/C [8] was 103% and the viability, T/C [9] was 98.4%. The viability, T/C [10] was 162%, the viability, T/C [11] was 153% and the viability, T/C [12] was 27.7%. The viability, T/C [13] was 54.7%, the viability, T/C [14] was 63% and the viability, T/C [15] was 76.5%. It also gave a viability, T/C [16] of 90.9%, a viability, T/C [17] of 91.7% and a viability, T/C [18] of 4.63%. It also gave a viability, T/C [19] of 40.1%, a viability, T/C [20] of 30.8% and a viability, T/C [21] of 37.5%. For the same molecule, the viability, T/C [22] was 30.2%, the viability, T/C [23] was 7.28% and the viability, T/C [24] was 4.48%. For the same molecule, the viability, T/C [25] was 12.7%, the viability, T/C [26] was 7.04% and the viability, T/C [27] was 7.87%. The viability, T/C [28] was 6.5%, the viability, T/C [29] was 7% and the viability, T/C [30] was 7.23%. The viability, T/C [31] was 7.85%, the viability, T/C [32] was 3.97% and the viability, T/C [33] was 7.25%. For the same molecule, the viability, T/C [34] was 5.7%, the viability, T/C [35] was 8.72% and the viability, T/C [36] was 6.19%. The viability, T/C [37] was 4.78%, the viability, T/C [38] was 5.48% and the viability, T/C [39] was 5.47%. The viability, T/C [40] was 5.41%, the viability, T/C [41] was 10% and the viability, T/C [42] was 1.39%.
